Data as given in patent US8343475B2, “Small cationic antimicrobial peptides” (priority 2006, dated 2013).
In brackets after ≈: the same amount, converted by molar mass. Residues, ends and D or L forms follow the SMILES beside them.

Assays:
Assay type in all cases: cell-based
[1] = test system: Enterococcus faecalis ATCC29212; settings: ATCC29212
Protocol: (§1) Minimal inhibitory concentration (MIC) determination. The MIC of the peptides were measured using a modified broth microdilution method in Mueller Hinton (MH) medium (Wu M, Hancock R E W. 1999. Interaction of the cyclic antimicrobial cationic peptide bactenecin with the outer and cytoplasmic membrane. J Biol Chem 274, 29-35). Briefly, the peptides were dissolved and stored in glass vials. The assay was performed in sterile 96-well polypropylene microtitre plates were used. Serial dilutions of the peptides to be assayed were performed in 0.01% acetic acid (Fisher) containing 0.2% bovine serum albumin (Boehringer Mannheim GmbH) at 10× the desired final concentration. Ten microlitres of the 10× peptides were added to each well of a 96-well polypropylene plate containing 90 μl of MH media per well. Bacteria were added to the plate from an overnight culture at 2-7×10^5 colony forming units/ml and incubated over night at 37° C. The MIC was taken as the concentration at which no growth was observed.
(§2) Strains. For the killing assay a mini-Tn5-lux mutant in Pseudomonas aeruginosa H103 was used. The strain is called H1001 and contains a fliC::luxCDABE transcriptional fusion resulting in constitutive expression of luciferase. The bacterial strains used for the antimicrobial activity assays included Escherichia coli UB1005 (F-, nalA37, metB1), a wild-type Salmonella enterica ssp. typhimurium (S. typhimurium), wild-type Pseudomonas aeruginosa PAO1 strain H103, Enterococcus faecalis ATCC29212, Staphylococcus aureus ATCC25923, and a clinical isolate of Staphylococcus epidermidis obtained from Dr. D. Speert (Department of Medicine, University of British Columbia). Antifungal activity was tested using a lab isolate of Candida albicans obtained from Dr. B. Dill (Department of Microbiology and Immunology, University of British Columbia).

[2] = test system: wild-type Salmonella enterica ssp. typhimurium
Protocol: as §1, §2

[3] = test system: lab isolate of Candida albicans; settings: lab isolate of
Protocol: as §1, §2

[4] = test system: clinical isolate of Staphylococcus epidermidis; settings: clinical isolate of
Protocol: as §1, §2

[5] = test system: Staphylococcus aureus ATCC25923; settings: ATCC25923
Protocol: as §1, §2

Escherichia coli UB1005 = settings: UB1005
Protocol: as §1, §2

[6] = test system: Pseudomonas aeruginosa PAO1 strain H103; settings: PAO1
Protocol: The biological activity of the peptides can be determined by standard methods known to those of skill in the art, such as “minimal inhibitory concentration (MIC)” assay described in the present examples, whereby the lowest concentration at which no change in OD is observed for a given period of time is recorded as MIC.
as §1, §2

[7] = test system: Pseudomonas aeruginosa strain H1001 fliC::luxCDABE; experiment: Luminescence (lux) killing assay, peptides cleaved from cellulose support; design: key: − for minimal or no activity; + for weak activity; +/++ for intermediate activity; ++ strong activity; settings: P. aeruginosa strain H1001, 4 hours incubation, luminescence as indicator
Protocol: Assay for the cleaved peptides from cellulose support. The peptides were cleaved from the dried membrane in an ammonia atmosphere overnight, resulting in free peptides with an amidated C-terminus. The free peptides contained two β-alanines at the C-terminus, in addition to being amidated due to the linker between the cellulose membrane and the peptide sequence. The peptide spots were punched out and transferred in a 96-well microtiter plate. Serial dilutions were carried out from the membrane spots. Four rows were filled with four controls including 2×Bac2A and 2× an unrelated peptide. The other eight rows were used for serial dilution steps of the peptide variants. An overnight culture of Pseudomonas aeruginosa strain H1001 was diluted 1:500 using either LB media or 100 mM Tris buffer pH 7.3, 20 mM glucose and was added to the wells (100 μl/well) containing the peptide spots. In all other wells 50 μl were added. The microtiter plate was incubated for 30 min at 37° C. to release the peptides from the membrane. Subsequently, a dilution series were performed and the plate was incubated at 37° C. The luminescence produced by the FMN dependent luciferase system were detected in a time dependent manner using a Tecan Spectra Fluor plus.
as §2
Peptide synthesis on cellulose is a very effective and inexpensive way to investigate many different peptide variants for one particular activity. However, one of the problems of this technique is the low peptide amount synthesized on the membrane, about 280 nmol per cm^2. An average peptide spot used for the experiments presented is about 0.3 cm^2. Therefore, an assay had to be developed that was sensitive enough to show activity with this amount of peptides. P. aeruginosa H1001 has a luciferase gene cassette incorporated into the bacterial chromosome in a gene fliC (involved in flagellar biosynthesis) that is constitutively expressed. It will thus produce light if FMN is present. When this strain is killed, e.g. by peptides, the amount of light produced will decrease due to a decrease in FMN levels in the killed cells. This action can thus be monitored by detecting luminescence in a microtiter plate luminescence reader over time. The volume and amount of cells per well were optimized for this assay. After screening, we were able to monitor the killing action with small amounts of the parent peptide Bac2A (2 μg/ml of free peptide).

CC[C@H](C)[C@H](NC(=O)[C@H](CCCNC(=N)N)NC(=O)[C@H](CC(C)C)NC(=O)[C@H](CCCNC(=N)N)NC(=O)[C@@H](N)CCC(N)=O)C(=O)N[C@@H](CCCNC(=N)N)C(=O)N[C@H](C(=O)N[C@@H](C)C(=O)N[C@H](C(=O)N[C@H](C(=O)N[C@@H](CCCNC(=N)N)C(=O)N[C@@H](C)C(N)=O)[C@@H](C)CC)C(C)C)C(C)C [HH1, QRLRIRVAVIRA] (H-QRLRIRVAVIRA-NH2)
MIC E. faecalis [1]: 50 µg/mL (≈ 34.5 µM)
MIC S. typhi [2]: 25 µg/mL (≈ 17.2 µM)
MIC C. albicans [3]: 25 µg/mL (≈ 17.2 µM)
MIC S. epi. [4]: 12 µg/mL (≈ 8.28 µM)
MIC S. aureus [5]: 50 µg/mL (≈ 34.5 µM)
MIC E. coli (Escherichia coli UB1005): 6 µg/mL (≈ 4.14 µM)
MIC P. aerug [6]: 50 µg/mL (≈ 34.5 µM)

CC[C@H](C)[C@H](NC(=O)[C@H](CCCNC(=N)N)NC(=O)[C@H](CC(C)C)NC(=O)[C@H](CCC(N)=O)NC(=O)[C@@H](N)C(C)C)C(=O)N[C@@H](CCCNC(=N)N)C(=O)N[C@H](C(=O)N[C@@H](C)C(=O)N[C@H](C(=O)N[C@H](C(=O)N[C@@H](CCCNC(=N)N)C(=O)N[C@@H](C)C(N)=O)[C@@H](C)CC)C(C)C)C(C)C [HH2, VQLRIRVAVIRA] (H-VQLRIRVAVIRA-NH2)
MIC E. faecalis [1]: 50 µg/mL (≈ 35.9 µM)
MIC S. typhi [2]: 12 µg/mL (≈ 8.62 µM)
MIC C. albicans [3]: 25 µg/mL (≈ 17.9 µM)
MIC S. epi. [4]: 12 µg/mL (≈ 8.62 µM)
MIC S. aureus [5]: 50 µg/mL (≈ 35.9 µM)
MIC E. coli (Escherichia coli UB1005): 6 µg/mL (≈ 4.31 µM)
MIC P. aerug [6]: >50 µg/mL

CC[C@H](C)[C@H](NC(=O)[C@H](CCCNC(=N)N)NC(=O)[C@H](Cc1ccccc1)NC(=O)[C@H](CCCNC(=N)N)NC(=O)[C@@H](N)C(C)C)C(=O)N[C@@H](CCCNC(=N)N)C(=O)N[C@H](C(=O)N[C@@H](C)C(=O)N[C@H](C(=O)N[C@H](C(=O)N[C@@H](CCCNC(=N)N)C(=O)N[C@@H](C)C(N)=O)[C@@H](C)CC)C(C)C)C(C)C [HH3, VRFRIRVAVIRA] (H-VRFRIRVAVIRA-NH2)
MIC E. faecalis [1]: 25 µg/mL (≈ 17.2 µM)
MIC S. typhi [2]: 6 µg/mL (≈ 4.12 µM)
MIC C. albicans [3]: 6 µg/mL (≈ 4.12 µM)
MIC S. epi. [4]: 1.6 µg/mL (≈ 1.1 µM)
MIC S. aureus [5]: 12 µg/mL (≈ 8.25 µM)
MIC E. coli (Escherichia coli UB1005): 1.6 µg/mL (≈ 1.1 µM)
MIC P. aerug [6]: 6 µg/mL (≈ 4.12 µM)

CC[C@H](C)[C@H](NC(=O)[C@H](CCCNC(=N)N)NC(=O)[C@H](Cc1c[nH]c2ccccc12)NC(=O)[C@H](CCCNC(=N)N)NC(=O)[C@@H](N)C(C)C)C(=O)N[C@@H](CCCNC(=N)N)C(=O)N[C@H](C(=O)N[C@@H](C)C(=O)N[C@H](C(=O)N[C@H](C(=O)N[C@@H](CCCNC(=N)N)C(=O)N[C@@H](C)C(N)=O)[C@@H](C)CC)C(C)C)C(C)C [HH4, VRWRIRVAVIRA] (H-VRWRIRVAVIRA-NH2)
MIC E. faecalis [1]: 12 µg/mL (≈ 8.03 µM)
MIC S. typhi [2]: 6 µg/mL (≈ 4.02 µM)
MIC C. albicans [3]: 12 µg/mL (≈ 8.03 µM)
MIC S. epi. [4]: 1.6 µg/mL (≈ 1.07 µM)
MIC S. aureus [5]: 12 µg/mL (≈ 8.03 µM)
MIC E. coli (Escherichia coli UB1005): 1.6 µg/mL (≈ 1.07 µM)
MIC P. aerug [6]: 6 µg/mL (≈ 4.02 µM)

CC[C@H](C)[C@H](NC(=O)[C@H](Cc1c[nH]c2ccccc12)NC(=O)[C@H](CC(C)C)NC(=O)[C@H](CCCNC(=N)N)NC(=O)[C@@H](N)C(C)C)C(=O)N[C@@H](CCCNC(=N)N)C(=O)N[C@H](C(=O)N[C@@H](C)C(=O)N[C@H](C(=O)N[C@H](C(=O)N[C@@H](CCCNC(=N)N)C(=O)N[C@@H](C)C(N)=O)[C@@H](C)CC)C(C)C)C(C)C [HH5, VRLWIRVAVIRA] (H-VRLWIRVAVIRA-NH2)
MIC E. faecalis [1]: 25 µg/mL (≈ 17.2 µM)
MIC S. typhi [2]: >50 µg/mL
MIC C. albicans [3]: 50 µg/mL (≈ 34.5 µM)
MIC S. epi. [4]: 3 µg/mL (≈ 2.07 µM)
MIC S. aureus [5]: 50 µg/mL (≈ 34.5 µM)
MIC E. coli (Escherichia coli UB1005): 6 µg/mL (≈ 4.14 µM)
MIC P. aerug [6]: >50 µg/mL

CC[C@H](C)[C@H](NC(=O)[C@H](CCCNC(=N)N)NC(=O)[C@H](CC(C)C)NC(=O)[C@H](CCCNC(=N)N)NC(=O)[C@@H](N)C(C)C)C(=O)N[C@@H](CCCNC(=N)N)C(=O)N[C@H](C(=O)N[C@@H](Cc1c[nH]c2ccccc12)C(=O)N[C@H](C(=O)N[C@H](C(=O)N[C@@H](CCCNC(=N)N)C(=O)N[C@@H](C)C(N)=O)[C@@H](C)CC)C(C)C)C(C)C [HH6, VRLRIRVWVIRA] (H-VRLRIRVWVIRA-NH2)
MIC E. faecalis [1]: 6 µg/mL (≈ 3.91 µM)
MIC S. typhi [2]: 12 µg/mL (≈ 7.81 µM)
MIC C. albicans [3]: 25 µg/mL (≈ 16.3 µM)
MIC S. epi. [4]: 1.6 µg/mL (≈ 1.04 µM)
MIC S. aureus [5]: 6 µg/mL (≈ 3.91 µM)
MIC E. coli (Escherichia coli UB1005): 3 µg/mL (≈ 1.95 µM)
MIC P. aerug [6]: 12 µg/mL (≈ 7.81 µM)

CC[C@H](C)[C@H](NC(=O)[C@H](CCCNC(=N)N)NC(=O)[C@H](CC(C)C)NC(=O)[C@H](CCCNC(=N)N)NC(=O)[C@@H](N)C(C)C)C(=O)N[C@@H](CCCNC(=N)N)C(=O)N[C@H](C(=O)N[C@@H](C)C(=O)N[C@H](C(=O)N[C@@H](CCCNC(=N)N)C(=O)N[C@@H](CCCNC(=N)N)C(=O)N[C@@H](C)C(N)=O)C(C)C)C(C)C [HH7, VRLRIRVAVRRA] (H-VRLRIRVAVRRA-NH2)
MIC E. faecalis [1]: 25 µg/mL (≈ 17.1 µM)
MIC S. typhi [2]: 6 µg/mL (≈ 4.1 µM)
MIC C. albicans [3]: 6 µg/mL (≈ 4.1 µM)
MIC S. epi. [4]: 1.6 µg/mL (≈ 1.09 µM)
MIC S. aureus [5]: 12 µg/mL (≈ 8.2 µM)
MIC E. coli (Escherichia coli UB1005): 6 µg/mL (≈ 4.1 µM)
MIC P. aerug [6]: 12 µg/mL (≈ 8.2 µM)

KKKWWKWRR [HH987]
Antimicrobial activity [7]: ++

KKPWWPWRR [HH977]
Antimicrobial activity [7]: +

KWPKWPWRR [HH979]
Antimicrobial activity [7]: +

KWPWKPWRR [HH980]
Antimicrobial activity [7]: +

KWPWWKWRR [HH981]
Antimicrobial activity [7]: ++

KWPWWPKRR [HH982]
Antimicrobial activity [7]: +

KWPWWPWRK [HH975]
Antimicrobial activity [7]: +

KWPWWPWRR [HH983]
Antimicrobial activity [7]: +/++

KWRWWKKRR [HH986]
Antimicrobial activity [7]: ++

KWRWWPWRR [HH978]
Antimicrobial activity [7]: ++

KWWKWKK [HH1008]
Antimicrobial activity [7]: +

KWWPWRR [HH994]
Antimicrobial activity [7]: +

PKWPWRR [HH997]
Antimicrobial activity [7]: −

PWKPWRR [HH998]
Antimicrobial activity [7]: −

PWWKWRR [HH995]
Antimicrobial activity [7]: +/++

PWWKWRR [HH999]
Antimicrobial activity [7]: +

PWWPKRR [HH1000]
Antimicrobial activity [7]: −

PWWPWRK [HH1001]
Antimicrobial activity [7]: −

PWWPWRR [HH993]
Antimicrobial activity [7]: +

RFFKFRR [HH1007]
Antimicrobial activity [7]: −

RFWKWRR [HH1004]
Antimicrobial activity [7]: +

RWWIKRR [HH1005]
Antimicrobial activity [7]: +/++

RWWIYRR [HH1006]
Antimicrobial activity [7]: +

RWWKWRK [HH1003]
Antimicrobial activity [7]: +/++

RWWKWRR [HH1002]
Antimicrobial activity [7]: ++

RWWPWRR [HH996]
Antimicrobial activity [7]: +
